Experimental findings from ChEMBL document CHEMBL5385846, “Discovery and development of palmatine analogues as anti-NASH agents by activating farnesoid X receptor (FXR)” (Eur J Med Chem, 2023) are described below.

Structures are written as SMILES. The source made the active and inactive calls. No cut-off for these calls is given here.

Series [1] in a line: Acute toxicity in Kunming mouse assessed as lethal dose at po administration. It counts as organism-based. The settings on record: in vivo.
A short description of series [2]: Acute toxicity in Kunming mouse assessed as effect on AST level at 250 to 1000 mg/kg,po administration. Type of series: organism-based. The settings on record: in vivo, dose 250-1000 mg/kg.
Series [3] in a line: Half life in Sprague-Dawley rat liver microsomes at 1 micromol/L measured upto 60 mins in presence of NADPH by LC-MS/MS analysis. Type of series: ADME, Microsome. Conditions: dose 1 µmol/L. For orientation: Microsomes from liver hold many membrane-bound enzymes, among them those of drug oxidation.
The nature of series [4]: Metabolic stability in human liver microsomes assessed as microsomal intrinsic clearance at 1 micromol/L measured upto 60 mins in presence of NADPH by LC-MS/MS analysis. Type of series: ADME, Microsome. The settings on record: dose 1 µmol/L, read-out: CLH.
The test system of series [5] is Mus musculus. The series can be described thus: Antifibrotic activity in CDAHFD induced non-alcoholic steatohepatitis C57BL/6N mouse model assessed as downregulation of COL1A1 mRNA expression at 200 mg/kg,po qd administration for 4 weeks by qRT-PCR analysis. It counts as functional, organism-based. Background: Quantitative PCR measures a nucleic acid by following its amplification.

With `COc1cc2c(cc1OC)-c1cc3ccc(OC)c(OCc4cccc(C)c4)c3c[n+]1CC2.[Br-]`, in series [1], the LD50 (commonly the dose at which mortality reaches 50%) was more than 1000 mg/kg. Besides, the Activity result in series [2] is recorded as “Non-Toxic”. In addition, the half-life (commonly the time in which the quantity being followed falls by half) at 1 µM in series [3] stood at 7.4 min. The microsomal CLint at 1 µM in series [4] was 26 µL/min/mg. Also, the outcome in series [5] was Active.
